Measured values: ChEMBL document CHEMBL3044715, “Synthesis, spectral studies and biological evaluation of a novel series of 2-substituted-5,6-diarylsubstituted imidazo(2,1-b)-1,3,4-thiadiazole derivatives as possible anti-tubercular agents” (Med Chem Res, 2012)
In brackets after ≈: the same amount, converted by molar mass. Activity calls are given as the source filed them. No cut-off for these calls is given here.

Test system: Vero
Assay: Cytotoxicity against Chlorocebus aethiops (African green monkey) Vero cells after 72 hr by MTT assay
Format: cell-based
Conditions: Chlorocebus sabaeus

Row | SMILES | IC50 [µM]
1 | COc1ccc(-c2nc3sc(S(N)(=O)=O)nn3c2-c2ccc(OC)cc2)cc1 | 247
2 | COc1ccc(-c2nc3sc(-c4ccc(F)cc4)nn3c2-c2ccc(OC)cc2)cc1 | 163
3 | COc1ccc(-c2nc3sc(C(F)(F)F)nn3c2-c2ccc(OC)cc2)cc1 | 147
4 | COc1ccc(-c2nn3c(-c4ccc(OC)cc4)c(-c4ccc(OC)cc4)nc3s2)cc1 | 162
5 | COc1ccc(-c2c(-c3ccccc3)nc3sc(S(N)(=O)=O)nn23)cc1 | 204
6 | COc1c(N2CCNC(C)C2)c(F)cc2c(=O)c(C(=O)O)cn(C3CC3)c12 (stereo not given) [GATIFLOXACIN] | > 550
7 | COc1ccc(-c2c(-c3ccc(SC)cc3)nc3sc(C(F)(F)F)nn23)cc1 | 123
8 | COc1ccc(-c2c(-c3ccc(SC)cc3)nc3sc(S(N)(=O)=O)nn23)cc1 | 213
9 | NNC(=O)c1ccncc1 [ISONIAZID] | > 450
10 | COc1ccc(-c2nn3c(-c4ccccc4)c(-c4ccc(SC)cc4)nc3s2)cc1 | 135
11 | COc1ccc(-c2nn3c(-c4ccc(OC)cc4)c(-c4ccc(SC)cc4)nc3s2)cc1 | 120
12 | CSc1ccc(-c2nc3sc(C(F)(F)F)nn3c2-c2ccccc2)cc1 | 140
13 | COc1ccc(-c2c(-c3ccc(SC)cc3)nc3sc(-c4ccc(F)cc4)nn23)cc1 | 116
14 | CSc1ccc(-c2nc3sc(S(N)(=O)=O)nn3c2-c2ccccc2)cc1 | 192
15 | Cc1ccc(-c2nc3sc(S(N)(=O)=O)nn3c2-c2ccccc2)cc1 | 168

Test system: Mycobacterium tuberculosis
Assay: Antimycobacterial activity against Mycobacterium tuberculosis H37Rv ATCC 27294 after 5 days by Alamar blue assay
Format: functional
Conditions: not given

Row | SMILES | MIC
16 | CSc1ccc(-c2nc3sc(-c4ccc(F)cc4)nn3c2-c2ccccc2)cc1 | inactive
17 | COc1ccc(-c2c(-c3ccccc3)nc3sc(-c4ccc(F)cc4)nn23)cc1 | inactive
18 | COc1ccc(-c2nn3c(-c4ccccc4)c(-c4ccc(C)cc4)nc3s2)cc1 | inactive
19 | Cc1ccc(-c2nc3sc(C(F)(F)F)nn3c2-c2ccccc2)cc1 | inactive
20 | COc1ccc(-c2c(-c3ccccc3)nc3sc(C(F)(F)F)nn23)cc1 | inactive

Same assay, conditions: H37Rv ATCC 27294, 120 h

Row | SMILES | MIC [µg/mL]
21 | COc1ccc(-c2nc3sc(S(N)(=O)=O)nn3c2-c2ccc(OC)cc2)cc1 | 1.25 (≈ 3 µM)
22 | COc1ccc(-c2nc3sc(-c4ccc(F)cc4)nn3c2-c2ccc(OC)cc2)cc1 | 5 (≈ 11.6 µM)
23 | COc1ccc(-c2nc3sc(C(F)(F)F)nn3c2-c2ccc(OC)cc2)cc1 | 1.25 (≈ 3.08 µM)
24 | COc1ccc(-c2nn3c(-c4ccc(OC)cc4)c(-c4ccc(OC)cc4)nc3s2)cc1 | 5 (≈ 11.3 µM)
25 | COc1ccc(-c2c(-c3ccccc3)nc3sc(S(N)(=O)=O)nn23)cc1 | 5 (≈ 12.9 µM)
26 | COc1c(N2CCNC(C)C2)c(F)cc2c(=O)c(C(=O)O)cn(C3CC3)c12 (stereo not given) [GATIFLOXACIN] | 1 (≈ 2.66 µM)
27 | COc1ccc(-c2c(-c3ccc(SC)cc3)nc3sc(C(F)(F)F)nn23)cc1 | 5 (≈ 11.9 µM)
28 | COc1ccc(-c2c(-c3ccc(SC)cc3)nc3sc(S(N)(=O)=O)nn23)cc1 | 2.5 (≈ 5.78 µM)
29 | NNC(=O)c1ccncc1 [ISONIAZID] | 0.25 (≈ 1.82 µM)
30 | COc1ccc(-c2nn3c(-c4ccccc4)c(-c4ccc(SC)cc4)nc3s2)cc1 | 10 (≈ 23.3 µM)
31 | COc1ccc(-c2nn3c(-c4ccc(OC)cc4)c(-c4ccc(SC)cc4)nc3s2)cc1 | 10 (≈ 21.8 µM)
32 | CSc1ccc(-c2nc3sc(C(F)(F)F)nn3c2-c2ccccc2)cc1 | 10 (≈ 25.5 µM)
33 | COc1ccc(-c2c(-c3ccc(SC)cc3)nc3sc(-c4ccc(F)cc4)nn23)cc1 | 10 (≈ 22.3 µM)
34 | CSc1ccc(-c2nc3sc(S(N)(=O)=O)nn3c2-c2ccccc2)cc1 | 2.5 (≈ 6.21 µM)
35 | Cc1ccc(-c2nc3sc(S(N)(=O)=O)nn3c2-c2ccccc2)cc1 | 10 (≈ 27 µM)
